# Laboratory results as given in PubChem BioAssay (NCI).
#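 Exposure lasted 48 hours, with cells grown in 96-well plates and compounds tested at five concentrations. TGI is the concentration that stops growth completely.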
# Legend:
# Assay in all cases: NCI-60 cell line screen, 48 h
# BT-549 breast = test system: BT-549 breast
# CAKI-1 renal = test system: CAKI-1 renal
# HCT-116 colon = test system: HCT-116 colon
# HOP-92 NSCLC = test system: HOP-92 NSCLC
# K-562 leukemia = test system: K-562 leukemia
# KM12 colon = test system: KM12 colon
# MDA-MB-435 = test system: MDA-MB-435
# MOLT-4 leukemia = test system: MOLT-4 leukemia
# OVCAR-4 ovarian = test system: OVCAR-4 ovarian
# SF-539 CNS = test system: SF-539 CNS
SMILES,TGI (BT-549 breast) [µM],TGI (CAKI-1 renal) [µM],TGI (HCT-116 colon) [µM],TGI (HOP-92 NSCLC) [µM],TGI (K-562 leukemia) [µM],TGI (KM12 colon) [µM],TGI (MDA-MB-435) [µM],TGI (MOLT-4 leukemia) [µM],TGI (OVCAR-4 ovarian) [µM],TGI (SF-539 CNS) [µM]
O=S1(=O)OCCOS(=O)(=O)C1C1c2ccccc2-c2ccccc21,> 100,98.5,> 100,> 100,> 100,> 100,> 100,48.2,52.4,> 100
c1ccc(C(OCCN2CC3CCC(C2)N3)c2ccccc2)cc1,> 100,> 100,> 100,75.6,> 100,> 100,> 100,> 100,> 100,> 100
CC(NC(=O)C(NC(=O)C(NC(=O)C(F)(F)F)C(C)C)C(C)C)C(=O)Oc1c(Cl)c(Cl)c(Cl)c(Cl)c1Cl (stereo not drawn),> 100,> 100,> 100,> 100,> 100,> 100,> 100,> 100,> 100,> 100
COC(=O)C1=C(C(=O)OC)SC2(S1)C(C(=O)OC)=C(C(=O)OC)Sc1c2ssc1=O,2.89,2.93,1.78,2.3,2.86,15.4,4.36,0.843,2.79,3.35
CN1CN(c2ccccc2)C2(CCN(C(=O)OC(C)(C)C)CC2)C1=O,> 100,> 100,> 100,> 100,> 100,> 100,> 100,> 100,> 100,> 100
CC(C)(C)c1ccc(OCCOc2ccc(C(C)(C)C)cc2NC=O)c(NC=O)c1,32.8,> 67.7,33.5,23.5,> 43.7,16.2,26.9,19.1,54.2,21.6
COc1cc(/C=[N+](\[O-])c2ccccc2Cl)ccc1OC(=S)S,68.3,> 100,> 100,49.2,> 100,41.8,57.7,> 100,27.8,> 100
CCOP(=O)(OCC)C(Cc1cn(S(=O)(=O)c2ccc(C)cc2)cn1)C(=O)O (stereo not drawn),> 100,> 100,> 100,> 100,> 100,> 100,> 100,> 100,> 100,> 100
O=C1/C(=C/Cc2ccco2)N=C(c2ccccc2)N1c1nc2ccc(Sc3ccccc3)cc2[nH]1,57.7,> 100,40.7,67.6,> 100,45.5,23.5,92.9,86.3,> 100
CCc1c[n+]2c(cc1C1=CN3c4ccccc4[C@]45CCN6C/C(=C/CO)[C@H](C[C@H]64)[C@@H]([C@@H]1O)[C@H]35)-c1[nH]c3ccccc3c1CC2,> 50,> 50,> 50,> 50,> 50,> 50,> 50,> 50,> 50,> 50
O=C(NC1CCCCC1)N1CCNC1=S,> 100,> 100,> 100,> 100,> 100,> 100,> 100,> 100,> 100,> 100
OC[C@H](O)[C@@H](OCc1ccccc1)[C@H](NCc1ccccc1)c1cccs1,> 100,> 100,> 100,> 100,> 100,> 100,> 100,> 100,> 100,> 100
CC(=O)[C@H]1CC[C@@H]2[C@]1(C)CC=C1[C@]23C=C[C@]2(C[C@@H](O)CC[C@]12C)C(C(=O)O)C3C(=O)O (stereo partly drawn),> 100,> 100,> 100,> 100,> 100,> 100,> 100,> 100,> 100,> 100
CC(C)C(C=O)C(O)(C(F)(F)F)C(F)(F)F (stereo not drawn),> 100,> 100,> 100,> 100,> 100,> 100,> 100,> 100,> 100,> 100
Cn1c(SCc2ccc([N+](=O)[O-])cc2)nnc1C12CC3CC(CC(C3)C1)C2,> 10,> 10,> 10,> 10,> 10,> 10,> 10,> 10,> 10,> 10
Cc1ccc2c(=O)cc(-c3ccccc3)[nH]c2n1,> 100,> 72.9,59.4,> 55.2,6.57,45.7,0.0321,> 28.3,> 100,2.79
O=C(O)Cn1cnc2c(=O)[nH]c(Nc3ccccc3)nc21,> 100,> 100,> 100,> 100,,> 100,> 100,> 100,> 100,> 100
COc1ccc2nc3c(nc2c1)C(C)(C)C=C3c1ccc(Br)cc1,> 100,> 100,> 100,> 100,,> 100,> 100,> 100,> 100,> 100
Cc1cc2nc3c(C)c4ccccc4c(C)n3c2cc1C,> 10,> 10,3.96,8.45,> 10,> 10,> 10,> 10,> 10,4.88
CC(=O)O[C@H]1C(=O)[C@@]2(C)C(C(OC(=O)c3ccccc3)[C@]3(O)CC(OC(=O)C(O)C(NC(=O)c4cccc(Cl)c4)c4ccccc4)C(C)=C1C3(C)C)[C@]1(OC(C)=O)CO[C@@H]1C[C@@H]2O (stereo partly drawn),> 10,> 10,5.12,> 10,> 10,> 10,0.417,> 10,> 10,2.19
C=c1c2ccccc2oc2nc3[nH]c(N)c(C#N)c(N)c3c(=N)c12,> 100,> 100,> 100,> 100,> 100,56.4,> 100,89.2,> 100,71.5
Nc1nc(Cl)cc(Oc2ccc(Cl)cc2)n1,> 100,> 100,> 100,> 100,> 100,> 100,> 100,> 100,> 100,> 100
COc1cc([C@@H]2c3cc4c(cc3[C@H](OC3OC5COC(C(C)C)OC5C(O)C3O)C3COC(=O)[C@@H]32)OCO4)cc(OC)c1OC (stereo partly drawn),20.2,17.5,7.8,24.6,> 100,18,> 54.2,> 68.4,> 100,> 25.9
CCOC(=O)/C(C(N)=O)=C(/O)c1cnccn1,> 100,> 100,> 100,> 100,> 100,> 100,> 100,> 100,> 100,> 100
